Mean particle size and Specific surface area data for seven compounds are collected here from patent US20090124817A1 (The Industry & Academic Cooperation in Chungnam National …, priority 2007, published 2009).

The structures appear in SMILES notation.

Data set [1] in a line: Particle size by dynamic light scattering / laser diffraction. It is filed as physicochemical. Here is the method:
(§1) The particle size and particle size distribution of samples were determined by dynamic light scattering (DLS) using electrophoretic light scattering spectrophotometer (ELS-8000, Otsuka Electronics, Japan) at a fixed angle of 90° and at room temperature. The samples were dispersed in mineral oil (Macrol 52, Exxon Mobil Co., USA) and sonicated before measurement. The particle size and particle size distribution of samples were also determined with a Sympatec laser diffraction analyzer (HELOS/RODOS, Clausthal-Zellerfeld, Germany) consisted of a laser sensor HELOS and a RODOS dry-powder air-dispersion system. The specific surface area was determined using the gas adsorption method. Calculation is based on the BET equation. Surface Area Analyzer ASAP 2010 (Micromeritics Instrument Corporation, USA) was used.

The nature of data set [2]: Specific surface area by gas adsorption (BET). The format is physicochemical. Particulars: BET equation. How it is done:
as §1

[3] abbreviates: DLS, dispersed in mineral oil, room temperature.

Consider `CC(C)c1c(C(=O)Nc2ccccc2)c(-c2ccccc2)c(-c2ccc(F)cc2)n1CC[C@@H](O)C[C@@H](O)CC(=O)[O-].CC(C)c1c(C(=O)Nc2ccccc2)c(-c2ccccc2)c(-c2ccc(F)cc2)n1CC[C@@H](O)C[C@@H](O)CC(=O)[O-].[Ca+2]` [Starting material, atorvastatin calcium, reference compound], for which the Mean particle size in data set [1] (DLS / laser diffraction) is listed as 3.87 μm. This compound returned a Specific surface area in data set [2] of 14.56 m^2/g.

Compound `CC(C)c1c(C(=O)Nc2ccccc2)c(-c2ccccc2)c(-c2ccc(F)cc2)n1CC[C@@H](O)C[C@@H](O)CC(=O)[O-].CC(C)c1c(C(=O)Nc2ccccc2)c(-c2ccccc2)c(-c2ccc(F)cc2)n1CC[C@@H](O)C[C@@H](O)CC(=O)[O-].[Ca+2]` [Example 18, atorvastatin calcium] registered a Mean particle size in data set [1] (setting [3]) of 155 nm. The Specific surface area in data set [2] is 79.78 m^2/g.

In the case of `CC(C)c1c(C(=O)Nc2ccccc2)c(-c2ccccc2)c(-c2ccc(F)cc2)n1CC[C@@H](O)C[C@@H](O)CC(=O)[O-].CC(C)c1c(C(=O)Nc2ccccc2)c(-c2ccccc2)c(-c2ccc(F)cc2)n1CC[C@@H](O)C[C@@H](O)CC(=O)[O-].[Ca+2]` [Example 10, atorvastatin calcium], the Mean particle size in data set [1] (setting [3]) worked out at 727 nm. In data set [2], this compound displayed a Specific surface area of 30.88 m^2/g.

Regarding `CC(C)c1c(C(=O)Nc2ccccc2)c(-c2ccccc2)c(-c2ccc(F)cc2)n1CC[C@@H](O)C[C@@H](O)CC(=O)[O-].CC(C)c1c(C(=O)Nc2ccccc2)c(-c2ccccc2)c(-c2ccc(F)cc2)n1CC[C@@H](O)C[C@@H](O)CC(=O)[O-].[Ca+2]` [Example 2, atorvastatin calcium], in data set [1] (setting [3]), the Mean particle size is recorded as 179 nm. In data set [2], the Specific surface area came out at 90.28 m^2/g.

The compound `CC(C)c1c(C(=O)Nc2ccccc2)c(-c2ccccc2)c(-c2ccc(F)cc2)n1CC[C@@H](O)C[C@@H](O)CC(=O)[O-].CC(C)c1c(C(=O)Nc2ccccc2)c(-c2ccccc2)c(-c2ccc(F)cc2)n1CC[C@@H](O)C[C@@H](O)CC(=O)[O-].[Ca+2]` [Comparative Example 1, atorvastatin calcium, reference compound] came in with a Mean particle size in data set [1] (DLS / laser diffraction) of 7.31 μm. This compound had a Specific surface area in data set [2] of 0.95 m^2/g.

Compound `CC(C)c1c(C(=O)Nc2ccccc2)c(-c2ccccc2)c(-c2ccc(F)cc2)n1CC[C@@H](O)C[C@@H](O)CC(=O)[O-].CC(C)c1c(C(=O)Nc2ccccc2)c(-c2ccccc2)c(-c2ccc(F)cc2)n1CC[C@@H](O)C[C@@H](O)CC(=O)[O-].[Ca+2]` [Example 25, atorvastatin calcium] gave a Mean particle size in data set [1] (setting [3]) of 65 nm. Also, in data set [2], the Specific surface area worked out at 120.35 m^2/g.

With `CC(C)c1c(C(=O)Nc2ccccc2)c(-c2ccccc2)c(-c2ccc(F)cc2)n1CC[C@@H](O)C[C@@H](O)CC(=O)[O-].CC(C)c1c(C(=O)Nc2ccccc2)c(-c2ccccc2)c(-c2ccc(F)cc2)n1CC[C@@H](O)C[C@@H](O)CC(=O)[O-].[Ca+2]` [Example 9, atorvastatin calcium], the Mean particle size in data set [1] (setting [3]) worked out at 265 nm. In data set [2], this compound registered a Specific surface area of 47.82 m^2/g.
